Data set [1] deals with T1, human AMP kinase 1 (hAK1, cytosolic adenylate kinase) (Homo sapiens, UniProt P00568).
T1 sequence (P00568 1-194): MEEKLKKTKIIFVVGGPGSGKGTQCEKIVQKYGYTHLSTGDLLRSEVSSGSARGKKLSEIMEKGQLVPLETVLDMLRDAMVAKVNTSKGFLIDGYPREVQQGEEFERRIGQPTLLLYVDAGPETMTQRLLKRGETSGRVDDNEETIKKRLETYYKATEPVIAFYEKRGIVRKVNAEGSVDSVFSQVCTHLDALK
In words: coupled spectrophotometric NMP kinase assay, hAK1. In kind it is biochemical. As to conditions: for Km: hAK1, 37°C, 1 mM ATP, – = Non detectable; for phosphorylation (in words): hAK1.

In data set [2] the target is human AMP kinase 2 (hAK2, mitochondrial adenylate kinase) (Homo sapiens, UniProt P54819). Nature of the data set: coupled spectrophotometric NMP kinase assay, hAK2. The conditions noted are these: for Km: hAK2, 37°C, 1 mM ATP, – = Non detectable; for phosphorylation (in words): hAK2.
In data set [3] the target is T2, human UMP-CMP kinase (hUCK) (Homo sapiens, UniProt P30085).
T2 sequence (P30085 1-196): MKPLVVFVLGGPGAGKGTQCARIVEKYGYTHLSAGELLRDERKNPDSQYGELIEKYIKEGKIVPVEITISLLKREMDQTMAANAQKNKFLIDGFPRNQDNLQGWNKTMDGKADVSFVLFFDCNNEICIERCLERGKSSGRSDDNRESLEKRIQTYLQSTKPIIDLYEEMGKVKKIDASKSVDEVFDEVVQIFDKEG
Nature of the data set: coupled spectrophotometric NMP kinase assay, hUCK. The conditions noted are these: for Km: 37°C, 1 mM ATP; for Relative Vmax: relative to kcat of D-CMP (100 = kcat 130 s^−1). The format is biochemical.

The target of a further data set is T3, hTMPK (Homo sapiens, UniProt P23919).
T3 sequence (P23919 1-212): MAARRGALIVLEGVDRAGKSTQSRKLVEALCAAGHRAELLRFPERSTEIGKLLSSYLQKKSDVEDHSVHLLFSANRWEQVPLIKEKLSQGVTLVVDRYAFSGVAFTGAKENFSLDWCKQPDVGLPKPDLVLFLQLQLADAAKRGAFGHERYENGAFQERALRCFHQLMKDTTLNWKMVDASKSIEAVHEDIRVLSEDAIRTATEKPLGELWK
In words: fluorescence competition assay with MABA-dTDP. The format is binding.

For data set [4], the target named is T4, human dTMP kinase (hTMPK) (Homo sapiens, UniProt P23919).
T4 sequence (P23919 1-212): T3 sequence (P23919 1-212)
In words: coupled spectrophotometric NMP kinase assay, hTMPK. In kind it is biochemical.

Data set [5] concerns the target T2, human UMP-CMP kinase (hUCK). The conditions noted are these: cited from earlier work.
The test system of data set [6] is chronic B hepatitis virus load. As to conditions: woodchuck, in vivo; less efficiently than L-dC or L-dT; cited from earlier work.
For a further data set, the system named is hTK2. As to conditions: first phosphorylation of L-dT by hTK2; cited from earlier work.
In the next data set the test system is hdCK. As to conditions: first phosphorylation of L-dT by hdCK; cited from earlier work.
A further data set concerns phosphoglycerate kinase. The conditions noted are these: conversion of L-dTDP into L-dTTP; cited from earlier work.
In data set [7] the test system is Nc1ccn(C2OC(COP(=O)(O)O)C(O)C2O)c(=O)n1. In words: purified protein, by the assay type. As to conditions: other: hAK2, 37°C, 1 mM ATP; – = Non detectable; 37.0 °C.
In data set [8] the test system is Nc1ncnc2c1ncn2[C@@H]1C[C@@H](O)[C@H](COP(=O)(O)O)O1. In words: purified protein, by the assay type. The conditions noted are these: other: hAK2; – = Non detectable.
[9] abbreviates: 2 mM ATP and 2 mM Mg^2+ (Figure 2).

Where two headings read alike, the source gives them in different places.

The values that follow come from PMC1950558 (Nucleic Acids Research, 2007).

On to `Nc1ncnc2c1ncn2[C@@H]1O[C@H](COP(=O)(O)O)[C@@H](O)[C@H]1O` [D-AMP], for which the figures for the Km in data set [1] and in data set [2] were 140 ± 20 µM and 80 ± 20 µM, respectively.

Take `O=c1ccn([C@@H]2O[C@H](COP(=O)(O)O)[C@@H](O)[C@H]2O)c(=O)[nH]1` [D-UMP]: the Km in [1] worked out at 6000 ± 2000 µM. For the same molecule, in data set [3], the Km is 50 ± 10 µM and the “Relative Vmax” value came to 100%.

Regarding `Nc1ncnc2c1ncn2[C@H]1C[C@H](O)[C@@H](COP(=O)(O)O)O1` [D-dAMP], the Km was 1500 ± 300 µM in [1] and 210 ± 50 µM in data set [2].

Take `Nc1ccn([C@H]2C[C@H](O)[C@@H](COP(=O)(O)O)O2)c(=O)n1` [D-dCMP]: the “phosphorylation (in words)” value in [1] is “not substrates”. In data set [2], the “phosphorylation (in words)” value is listed as “not substrates”. In addition, in data set [3], the Michaelis-Menten constant (Km) is 1000 ± 100 µM and the “Relative Vmax” value amounted to 61 ± 4%.

With `O=c1ccn([C@H]2C[C@H](O)[C@@H](COP(=O)(O)O)O2)c(=O)[nH]1` [D-dUMP], the “phosphorylation (in words)” value in data set [1] is “not substrates”. Also, the Kd on hTMPK (read-out: dissociation constant KD, calculated from IC50 with Equation (1)) is 150 µM. Also, in data set [4] (setting [9]), the Km amounted to 170 ± 10 µM and the turnover number (kcat) was found to be 4.8 ± 0.6 s⁻¹. Further, the “phosphorylation (in words)” value in data set [2] is “not substrates”. In addition, in data set [3], the Km was determined as 1300 ± 300 µM and the “Relative Vmax” value came to 5.1 ± 0.5%.

For `Nc1ccn([C@@H]2CS[C@H](COP(=O)(O)O)O2)c(=O)n1` [L-3TCMP], the Michaelis-Menten constant (Km) in data set [5] (for comparison) is 150 ± 20 µM. The “Relative Vmax” value in [5] (relative to D-CMP) is given as 27%.

On to `Nc1ncnc2c1ncn2[C@@H]1C[C@@H](O)[C@H](CO)O1` [L-dA], for which, in [6], the “effect on virus load (in words)” value is “reduced the virus load”.

As for `Cc1cn([C@@H]2C[C@@H](O)[C@H](CO)O2)c(=O)[nH]c1=O` [L-dT, β-L-thymidine], the catalytic efficiency is 1e+07 M⁻¹ s⁻¹ in the data set with hTK2 and 16000 M⁻¹ s⁻¹ with hdCK. The same molecule gave a Kd on hTMPK of 450 µM.

On to `Cc1cn(C2CC(O)C(COP(=O)(O)OP(=O)(O)O)O2)c(=O)[nH]c1=O` [L-dTDP], for which the catalytic efficiency with phosphoglycerate kinase was 500 M⁻¹ s⁻¹.

Turning to `[N-]=[N+]=N[C@@H]1[C@H](O)[C@@H](COP(=O)(O)O)O[C@H]1n1ccc(=O)[nH]c1=O` [N3-D-dUMP], the “phosphorylation (in words)” value in data set [1] is recorded as “did not significantly phosphorylate”. Moreover, in data set [4], the “phosphorylation (in words)” value was “did not significantly phosphorylate”. The “phosphorylation (in words)” value in [2] is reported as “did not significantly phosphorylate”. In addition, in [3], the “substrate inhibition at high concentration (in words)” value is on record as “did not give rise to substrate inhibition”, the Km came to 900 ± 200 µM and the “Relative Vmax” value was 89 ± 6%.

On to “human AMP kinase 2 (hAK2, mitochondrial adenylate kinase) (Homo sapiens)”, for which the Km in data set [7] is 6000 ± 1000 µM. In addition, in [8], the catalytic efficiency (kcat/Km) was determined as 70 M⁻¹ s⁻¹.

A word on the Km: it is the concentration of substrate that gives half-maximal velocity. A word on the Kd: it is the constant that tells how readily two partners part at equilibrium. The term kcat denotes the maximal rate divided by the concentration of active sites. What is called kcat/Km is the turnover number divided by the Michaelis constant.
